According to PubChem BioAssay (NCI):
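Where inhibition never reached the appropriate level, the endpoint shown equals the highest concentration tested. Otherwise, values were interpolated linearly from a five-concentration, 48-hour dose response in 96-well plates. Abbreviation: GI50, concentration required for 50% inhibition of growth. TGI: total growth inhibition.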

Assays:
Assay in all cases: inhibition of tumour cell growth, NCI panel, 48 h
EKVX NSCLC = tested on: EKVX NSCLC
786-0 renal = tested on: 786-0 renal
A549 NSCLC = tested on: A549 NSCLC
OVCAR-8 ovarian = tested on: OVCAR-8 ovarian
OVCAR-4 ovarian = tested on: OVCAR-4 ovarian
SF-539 CNS = tested on: SF-539 CNS
NCI-H23 lung = tested on: NCI-H23 lung
MDA-MB-231 breast = tested on: MDA-MB-231 breast
HCC-2998 colon = tested on: HCC-2998 colon
OVCAR-3 ovarian = tested on: OVCAR-3 ovarian

SMILES	TGI (EKVX NSCLC) [µM]	TGI (786-0 renal) [µM]	TGI (A549 NSCLC) [µM]	TGI (OVCAR-8 ovarian) [µM]	TGI (OVCAR-4 ovarian) [µM]	TGI (SF-539 CNS) [µM]	TGI (NCI-H23 lung) [µM]	TGI (MDA-MB-231 breast) [µM]	TGI (HCC-2998 colon) [µM]	TGI (OVCAR-3 ovarian) [µM]	GI50 (EKVX NSCLC) [µM]	GI50 (A549 NSCLC) [µM]	GI50 (OVCAR-8 ovarian) [µM]	GI50 (OVCAR-4 ovarian) [µM]	GI50 (SF-539 CNS) [µM]	GI50 (NCI-H23 lung) [µM]	GI50 (MDA-MB-231 breast) [µM]	GI50 (OVCAR-3 ovarian) [µM]	GI50 (HCC-2998 colon) [µM]
C=CCOC(=O)N1c2ccc(O)cc2[C@@]23O[C@@]24[C@@H]1C#C/C=C\C#C[C@]3(O)C(OC)(OC)C[C@@H]4C	> 100	78.3	> 100	85.5	47.2	40.6	93	52.8	> 100	–	–	–	–	–	–	–	–	–	–
C=CCOC(OCC=C)/C(Br)=C/C	> 100	34	> 100	37	63.7	–	> 100	> 100	> 100	> 100	–	–	–	–	–	–	–	–	–
C=CCN1/C(=C2\SC(=S)N(c3ccc(C)cc3)C2=O)Sc2c1ncn(C)c2=O	> 100	> 100	> 100	> 100	> 100	> 100	> 100	–	> 100	–	–	–	–	–	–	–	–	–	–
O=C(OC1CN2CCC1CC2)N(c1ccccc1)c1ccccc1 (stereo unspecified)	> 100	> 100	> 100	> 100	> 100	> 100	> 100	> 100	–	> 100	–	–	–	–	–	–	–	–	–
CC(=O)O[C@H]1C[C@@H](OC(C)=O)[C@@](C)(O)[C@@H]2[C@@H](OC(C)=O)[C@@]3(O)[C@H](/C=C(/CO)[C@H]4O[C@H]4[C@@H](OC(C)=O)[C@@]12C)OC(=O)[C@@H]3C	> 25	> 25	> 25	> 25	> 25	–	> 25	> 25	> 25	15.5	–	–	–	–	–	–	–	–	–
O=C(CN1CCCCC1)Nc1ccc2c(c1)C1Oc3ccccc3CC1CO2 (stereo unspecified)	53.9	45.8	> 100	> 100	–	36	> 100	36.8	34.4	64.9	–	–	–	–	–	–	–	–	–
O=C(N/N=C\c1cccc2ccccc12)Nc1cccc2ccccc12	> 100	28.1	> 100	> 100	–	42.1	> 100	45.8	> 100	–	–	–	–	–	–	–	–	–	–
O=C(c1cccs1)N1CCCN(C(=O)c2cccs2)C1=S	> 100	> 100	–	> 100	–	> 100	> 100	> 100	–	> 100	–	–	–	–	–	–	–	–	–
COC(=O)CNC(=O)CCC(C)[C@H]1CCC2C3C(C[C@H](OC(C)=O)[C@@]21C)[C@@]1(C)CCC2(C[C@H]1C[C@H]3OC(C)=O)OOC1(CC[C@]3(C)C4C[C@H](OC(C)=O)[C@@]5(C)C(CC[C@@H]5C(C)CCC(=O)NCC(=O)OC)C4[C@H](OC(C)=O)C[C@@H]3C1)OO2 (stereo partly specified)	1.78	1.42	2.37	–	13.3	1.8	3.66	5.96	1.86	15.9	–	–	–	–	–	–	–	–	–
COC(=O)C1CCC(=O)N1C(c1cc(OC)c(OC)c(OC)c1)c1cccc2ccccc12 (stereo unspecified)	> 100	> 100	> 100	> 100	–	> 100	–	> 100	–	> 100	–	–	–	–	–	–	–	–	–
Cc1cc(Nc2ccc(NS(C)(=O)=O)cc2)c2c(ccc3nccc32)[nH]1	> 100	45.2	> 100	> 100	30.6	–	49.6	33.4	–	29.1	–	–	–	–	–	–	–	–	–
CCOC(=O)C(=CNC(=S)N=Nc1c(O)[nH]c2ccccc12)C(=O)OCC	–	> 100	> 100	> 100	> 100	> 100	> 100	> 100	> 100	> 100	–	–	–	–	–	–	–	–	–
CCCCSC1=N/C(=C\c2ccc(N(C)C)cc2)C(=O)N1	76.5	42.9	75.2	> 100	> 100	63.9	> 100	75.8	–	73.1	–	–	–	–	–	–	–	–	–
CCN(CC)CCn1c(=O)c2c(C)c3oc4ccccc4oc3c(C)c2c1=O	> 100	> 100	> 100	> 100	> 100	> 100	–	> 100	> 100	–	–	–	–	–	–	–	–	–	–
CC(=O)O[C@H]1C(=O)[C@@]2(C)[C@H]([C@H](OC(=O)c3ccccc3)[C@]3(O)C[C@H](OC(=O)[C@H](O)[C@@H](NC(=O)c4ccccc4)c4cccc(N(C)C)c4)C(C)=C1C3(C)C)[C@]1(OC(C)=O)CO[C@@H]1C[C@@H]2O	> 75	13.3	> 75	> 27.4	> 43.6	1.08	> 75	36.1	–	0.586	–	–	–	–	–	–	–	–	–
Cc1cc(OCCOCCC(F)(F)P(=O)(O)O)ccc1CCc1cnc2c(N)nc3cc(CCC(=O)O)ccc3c2c1	> 100	–	> 100	> 100	> 100	> 100	> 100	> 100	> 100	> 100	> 100	> 100	> 100	> 100	> 100	> 100	> 100	> 100	> 100
COC(=O)[C@]1(c2ccc(N(C)C)cc2OC)C[C@@H]2CCCN(CCc3c1[nH]c1ccccc31)C2	52	–	> 65.5	57.9	28.2	36.8	> 51.1	–	29.8	36.4	–	–	–	–	–	–	–	–	–
O=C(c1cccnc1)N1N=C(c2ccccc2)CC1(O)c1cc(F)c(Cl)cc1Cl (stereo unspecified)	> 100	53.6	> 100	> 100	> 100	32.3	> 100	35.4	–	24.5	–	–	–	–	–	–	–	–	–
C=CC(C)C1(CCCOCc2ccccc2)C(=S)N2CCC3(CC24CCCC14)OCCO3 (stereo unspecified)	> 100	–	> 100	> 100	> 100	–	> 100	–	> 100	> 100	–	–	–	–	–	–	–	–	–
O=c1[nH]nc(Nc2ccccc2)c2nnn(C3CCCCC3)c12	> 100	> 100	> 100	> 100	> 100	–	> 100	> 100	> 100	> 100	–	–	–	–	–	–	–	–	–
CCC(CC)(CO)CNc1cc(Cl)nc(N)n1	> 100	> 100	> 100	> 100	> 100	> 100	> 100	> 100	–	> 100	–	–	–	–	–	–	–	–	–
Cc1c(Cl)cccc1N=NC(=O)NNc1cccc(Cl)c1C	–	37.7	45.2	26.6	25.9	–	33.2	37.1	31.1	31.4	–	–	–	–	–	–	–	–	–

SMILES	TGI (EKVX NSCLC) [µM]	TGI (786-0 renal) [µM]	TGI (A549 NSCLC) [µM]	TGI (OVCAR-8 ovarian) [µM]	TGI (OVCAR-4 ovarian) [µM]	TGI (SF-539 CNS) [µM]	TGI (NCI-H23 lung) [µM]	TGI (MDA-MB-231 breast) [µM]	TGI (HCC-2998 colon) [µM]	TGI (OVCAR-3 ovarian) [µM]	GI50 (EKVX NSCLC) [µM]	GI50 (A549 NSCLC) [µM]	GI50 (OVCAR-8 ovarian) [µM]	GI50 (OVCAR-4 ovarian) [µM]	GI50 (SF-539 CNS) [µM]	GI50 (NCI-H23 lung) [µM]	GI50 (MDA-MB-231 breast) [µM]	GI50 (OVCAR-3 ovarian) [µM]	GI50 (HCC-2998 colon) [µM]
CCCCCCCCCCCCCC[n+]1ccc(C(N)=O)cc1	6.71	–	6.65	4.48	18.2	–	15.2	4.6	–	5.39	1.98	2.4	1.68	3.26	–	2.42	1.85	1.54	–
O=C(O)/C(=C\c1ccc(O)cc1)c1cccc2ccccc12	> 100	> 100	> 100	> 100	> 100	–	> 100	> 100	> 100	> 100	–	–	–	–	–	–	–	–	–
Cn1c2ccccc2c2cc(N3CCCC3)c3c(c21)C(=O)N(c1ccccc1)C3=O	> 100	95.5	> 100	> 100	> 100	–	> 100	> 100	> 100	> 100	–	–	–	–	–	–	–	–	–
CNC(=O)SCC(NC(=O)CCC(N)C(=O)O)C(=O)NCC(=O)O (stereo unspecified)	> 100	–	> 100	> 100	> 100	> 100	> 100	–	> 100	> 100	–	–	–	–	–	–	–	–	–
CC(C(=O)c1ccncc1)c1ccccn1 (stereo unspecified)	> 100	> 100	> 100	> 100	> 100	–	> 100	> 100	> 100	> 100	–	–	–	–	–	–	–	–	–
Cc1cc2n[n+]3[n-]cc(-c4ccccc4)n3c2cc1[N+](=O)[O-]	> 100	> 100	> 100	–	> 100	> 100	–	> 100	–	> 100	–	–	–	–	–	–	–	–	–
COc1ccc(-c2ncn(C[Si](C)(C)C)c2-c2ccc(OC)cc2)cc1	12.1	18.7	27.2	31.4	25.6	27.5	18.5	27.6	7.34	–	–	–	–	–	–	–	–	–	–
Cc1ccc(S(=O)(=O)C2=c3nc4ccccc4cc3=C3C(=O)c4ccccc4C(=O)C32)cc1 (stereo unspecified)	> 100	> 100	> 100	> 100	> 100	> 100	> 100	–	> 100	> 100	–	–	–	–	–	–	–	–	–
COc1cc(C2C3=C(CCCC3=O)N(c3ccc(C)cc3)C3=C2C(=O)CCC3)c([N+](=O)[O-])cc1OC	> 100	> 100	> 100	–	> 100	> 100	> 100	–	> 100	> 100	–	–	–	–	–	–	–	–	–
Cc1cc2c(cc1C)C(=O)C1(C2)Cc2cc3c(cc2C1=O)CCC3 (stereo unspecified)	> 100	> 100	> 100	> 100	> 100	91.9	> 100	–	> 100	> 100	–	–	–	–	–	–	–	–	–
COc1cccc2cc(C(=O)Nc3ccccc3)c(=N)oc12	> 100	> 100	> 100	> 100	> 100	> 100	> 100	> 100	–	> 100	–	–	–	–	–	–	–	–	–
O=C1CC(=O)NC(=NN2C(=O)CSC2C(=O)c2ccco2)N1 (stereo unspecified)	–	> 100	> 100	> 100	> 100	> 100	> 100	> 100	> 100	> 100	–	–	–	–	–	–	–	–	–
C=C(C)[C@H]1C2=CC(C)=C(O2)[C@@H](O)[C@H](C(=C)C)CCC2=C[C@H]1OC2=O	> 100	> 100	> 100	> 100	> 100	> 100	–	> 100	> 100	> 100	–	–	–	–	–	–	–	–	–
NCCCNOCCCN	–	> 100	> 100	> 100	> 100	> 100	> 100	> 100	> 100	> 100	–	–	–	–	–	–	–	–	–
N/C(=N\Nc1ccc(Cl)cc1)c1cnccn1	> 100	> 100	> 100	> 100	> 100	–	> 100	> 100	79.1	> 100	–	–	–	–	–	–	–	–	–
COC(=O)C1=C(C(=O)OC)C(N(C)C)C(C(=O)OC)=C(C(=O)OC)S1	–	> 100	> 100	> 100	> 100	–	> 100	> 100	> 100	> 100	–	–	–	–	–	–	–	–	–
O=C(Nc1ccccc1Cl)c1ccc([N+](=O)[O-])cc1	> 100	> 100	> 100	> 100	–	> 100	> 100	–	> 100	> 100	–	–	–	–	–	–	–	–	–
Cc1nc2c(cc1OCc1ccccc1)C(=O)C1=C(C2=O)C2OC(=O)CC2OC1(C)C (stereo unspecified)	3.63	1.07	21.2	12.3	1.94	2.04	2.32	1.51	1.91	–	–	–	–	–	–	–	–	–	–
CO/N=C(\C([O-])=N\[n+]1cnn(CC(=O)OC(C)(C)C)c1)c1csc(NC(c2ccccc2)(c2ccccc2)c2ccccc2)n1	> 10	> 10	> 10	> 10	> 10	> 10	> 10	–	> 10	> 10	–	–	–	–	–	–	–	–	–
CC(C)C(=O)/C=C/S/C=C/C(=O)C(C)C	90.9	6.52	> 100	6.48	> 100	60.2	7.57	15.9	–	14.9	–	–	–	–	–	–	–	–	–
OC12c3ccccc3C1CCCCCCCCCC21OCCO1 (stereo unspecified)	–	> 100	> 100	> 100	> 100	> 100	> 100	–	> 100	> 100	–	–	–	–	–	–	–	–	–
O=[N+]([O-])/C=C(\CS(=O)(=O)c1ccccc1)c1ccc2c(c1)OCO2	> 100	> 100	> 100	> 100	–	> 100	36.3	64.1	> 100	> 100	–	–	–	–	–	–	–	–	–
